# Results as given in patent publication US20070093894A1, “Incorporation of antimicrobial combinations onto devices to reduce infection” (Baylor College of Medicine, priority 2005, published 2007).
# Columns and labels:
# Type in all cases: cell-based
# [1] = system: Staphylococcus epidermidis; test: Zone of inhibition on agar, antibiotic-coated polyurethane central venous catheter segments; settings: 7-french polyurethane central venous catheter segment 10x2 mm, coating solution 100 mg/ml of each antibiotic, long axis parallel to agar; for zone of inhibition at 100000 µg/mL: Staphylococcus epidermidis
# Description: The device used in this example is a 7-french, polyurethane central venous catheter. Antibiotics were incorporated onto devices by using a patented method (U.S. Pat. No. 6,589,591) that utilized coating solutions that contained 100 mg/ml of minocycline; 100 mg/ml tobramycin; 100 mg/ml gentamicin; 100 mg/ml minocycline and 100 mg/ml tobramycin (minocycline dissolved first); or 100 mg/ml minocycline and 100 mg/ml gentamicin (minocycline dissolved first). The tested catheter segments were 10 mm (long)×2 mm (wide). The cather segments were placed onto agar with their long axis parerrel to the agar. All zone of inhibition are expressed in mm, and table 2 summarizes the results of the zones of inhibition.
# [2] = system: Staphyulococcus aureus (gram positive); test: Zone of inhibition on agar, antibiotic-coated composite hernia patch segments; settings: hernia patch (polypropylene mesh/PTFE) segment 10x10x2 mm, coating solution 100 mg/ml of each antibiotic, long axis perpendicular to agar
# Description: (§1) The device used in this example is a composite hernia patch with polypropylene mesh on one side and polytetrafluoroethylene (PTFE) on the other side. Antibiotics were incorporated onto devices by using a patented method (U.S. Pat. No. 6,589,591) that utilized coating solutions that contained 100 mg/ml of minocycline; 100 mg/ml tobramycin; 100 mg/ml gentamicin; 100 mg/ml minocycline and 100 mg/ml tobramycin (minocycline dissolved first); or 100 mg/ml minocycline and 100 mg/ml gentamicin (minocycline dissolved first). The tested square device segments were 10 mm (long)×10 mm (wide)×2 mm (thick). The device segments were placed onto agar with their long axis perpendicular to the agar (i.e. only 2 mm of the segment was in contact with the agar). All zone of inhibition are expressed in mm, and table 1 summarizes the results of the zones of inhibition.
# [3] = system: Escherichia coli (gram negative); test: as above; settings: hernia patch (polypropylene mesh/PTFE) segment 10x10x2 mm, coating solution 100 mg/ml of each antibiotic, long axis perpendicular to agar; for zone of inhibition at 100000 µg/mL: Escherichia coli
# Description: as §1
# [4] = system: Enterococcus faecalis (gram positive); test: as above; settings: hernia patch (polypropylene mesh/PTFE) segment 10x10x2 mm, coating solution 100 mg/ml of each antibiotic, long axis perpendicular to agar; for zone of inhibition at 100000 µg/mL: Enterococcus faecalis
# Description: as §1
Molecule,zone of inhibition at 100000 µg/mL [1],zone of inhibition at 100000 µg/mL [2],zone of inhibition at 100000 µg/mL [3],zone of inhibition at 100000 µg/mL [4],"zone of inhibition, Staphylococcus epidermidis [1]","zone of inhibition, Staphyulococcus aureus (gram positive) [2]","zone of inhibition, Escherichia coli (gram negative) [3]","zone of inhibition, Enterococcus faecalis (gram positive) [4]"
"CN(C)c1ccc(O)c2c1C[C@H]1C[C@H]3[C@H](N(C)C)C(O)=C(C(N)=O)C(=O)[C@@]3(O)C(O)=C1C2=O [Minocycline, minocycline]",30 mm,11 mm,3 mm,3 mm,–,–,–,–
"NC[C@H]1O[C@H](O[C@H]2[C@H](O)[C@@H](O[C@H]3O[C@H](CO)[C@@H](O)[C@H](N)[C@H]3O)[C@H](N)C[C@@H]2N)[C@H](N)C[C@@H]1O [Tobramycin, tobramycin]",14 mm,12 mm,18 mm,9 mm,–,–,–,–
gentamicin,–,–,–,–,6 mm,14 mm,11 mm,0 mm
